Measurements from PubChem BioAssay (NCI).
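Grown in 96-well plates, cells were treated for 48 hours with each compound at five concentrations. Insufficient inhibition: endpoint recorded as highest concentration tested. TGI marks complete inhibition of growth.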

Tests used:
Assay in all cases: DTP human tumour cell line panel, 48 h
[1] = test system: UACC-62 melanoma
[2] = test system: RXF-631 renal
[3] = test system: KM20L2 colon
[4] = test system: LOX IMVI melanoma
[5] = test system: OVCAR-8 ovarian
[6] = test system: OVCAR-4 ovarian
[7] = test system: MOLT-4 leukemia
[8] = test system: A498 renal
[9] = test system: HL-60(TB) leukemia
[10] = test system: CCRF-CEM leukemia
[11] = test system: UACC-257 melanoma
[12] = test system: SW-620 colon
[13] = test system: U251 CNS
[14] = test system: RXF 393 renal
[15] = test system: EKVX NSCLC
[16] = test system: OVCAR-3 ovarian
[17] = test system: ACHN renal
[18] = test system: NCI-H460 lung
[19] = test system: K-562 leukemia
[20] = test system: HCT-15 colon
[21] = test system: HT29 colon
[22] = test system: IGROV1 ovarian
[23] = test system: 786-0 renal
[24] = test system: CAKI-1 renal
[25] = test system: DMS 114 small cell lung
[26] = test system: HOP-62 NSCLC
[27] = test system: HCT-116 colon
[28] = test system: MALME-3M melanoma
[29] = test system: DLD-1 colon
[30] = test system: SF-295 CNS
[31] = test system: NCI-H522 lung
[32] = test system: HCC-2998 colon
[33] = test system: RPMI-8226 leukemia
[34] = test system: SK-MEL-28 melanoma
[35] = test system: M19-MEL melanoma
[36] = test system: LXFL 529 NSCLC
[37] = test system: SF-539 CNS
[38] = test system: SN12C renal
[39] = test system: SK-OV-3 ovarian
[40] = test system: COLO 205 colon
[41] = test system: SK-MEL-5 melanoma
[42] = test system: SNB-78 CNS
[43] = test system: KM12 colon
[44] = test system: M14 melanoma
[45] = test system: A549 NSCLC
[46] = test system: SNB-75 CNS
[47] = test system: NCI-H226 lung
[48] = test system: SF-268 CNS
[49] = test system: SK-MEL-2 melanoma
[50] = test system: UO-31 renal
[51] = test system: DMS 273 small cell lung
[52] = test system: SNB-19 CNS
[53] = test system: HOP-18 NSCLC
[54] = test system: HOP-92 NSCLC
[55] = test system: NCI-H23 lung
[56] = test system: SR leukemia
[57] = test system: OVCAR-5 ovarian
[58] = test system: TK-10 renal

## O=C(NCCCN1CCN(CCCNC(=O)c2cnc3ccccc3n2)CC1)c1cnc2ccccc2n1
[1]
  TGI: > 100 µM
[2]
  TGI: > 100 µM
[3]
  TGI: > 100 µM
[4]
  TGI: > 100 µM
[5]
  TGI: > 100 µM
[6]
  TGI: > 100 µM
[7]
  TGI: > 100 µM
[8]
  TGI: > 100 µM
[9]
  TGI: > 100 µM
[10]
  TGI: > 100 µM
[11]
  TGI: > 100 µM
[12]
  TGI: > 100 µM
[13]
  TGI: > 100 µM
[14]
  TGI: > 100 µM
[15]
  TGI: > 100 µM
[16]
  TGI: > 100 µM
[17]
  TGI: > 100 µM
[18]
  TGI: > 100 µM
[19]
  TGI: > 100 µM
[20]
  TGI: > 100 µM
[21]
  TGI: > 100 µM
[22]
  TGI: > 100 µM
[23]
  TGI: > 100 µM
[24]
  TGI: > 100 µM
[25]
  TGI: > 100 µM
[26]
  TGI: > 100 µM
[27]
  TGI: > 100 µM
[28]
  TGI: > 100 µM
[29]
  TGI: > 100 µM
[30]
  TGI: > 100 µM
[31]
  TGI: > 100 µM
[32]
  TGI: > 100 µM
[33]
  TGI: > 100 µM
[34]
  TGI: > 100 µM
[35]
  TGI: > 100 µM
[36]
  TGI: > 100 µM
[37]
  TGI: > 100 µM
[38]
  TGI: > 100 µM
[39]
  TGI: > 100 µM
[40]
  TGI: > 100 µM
[41]
  TGI: > 100 µM
[42]
  TGI: > 100 µM
[43]
  TGI: > 100 µM
[44]
  TGI: > 100 µM
[45]
  TGI: > 100 µM
[46]
  TGI: > 100 µM
[47]
  TGI: > 100 µM
[48]
  TGI: > 100 µM
[49]
  TGI: > 100 µM
[50]
  TGI: > 100 µM
[51]
  TGI: > 100 µM
[52]
  TGI: > 100 µM
[53]
  TGI: > 100 µM

## O=C(c1cc2ccccc2[nH]1)C(O)(c1cc2ccccc2[nH]1)c1cc2ccccc2[nH]1
[1]
  TGI: > 246 µM
[2]
  TGI: > 246 µM
[3]
  TGI: > 246 µM
[4]
  TGI: > 246 µM
[5]
  TGI: > 246 µM
[7]
  TGI: > 246 µM
[9]
  TGI: > 246 µM
[10]
  TGI: > 246 µM
[11]
  TGI: > 246 µM
[12]
  TGI: > 246 µM
[13]
  TGI: > 246 µM
[14]
  TGI: > 246 µM
[15]
  TGI: > 246 µM
[16]
  TGI: > 246 µM
[54]
  TGI: > 246 µM
[17]
  TGI: > 246 µM
[18]
  TGI: > 246 µM
[19]
  TGI: > 246 µM
[20]
  TGI: > 246 µM
[21]
  TGI: > 246 µM
[22]
  TGI: > 246 µM
[23]
  TGI: > 246 µM
[55]
  TGI: > 246 µM
[24]
  TGI: > 246 µM
[25]
  TGI: > 246 µM
[26]
  TGI: > 246 µM
[27]
  TGI: > 246 µM
[28]
  TGI: > 246 µM
[29]
  TGI: > 246 µM
[56]
  TGI: > 246 µM
[30]
  TGI: > 246 µM
[57]
  TGI: > 246 µM
[31]
  TGI: > 246 µM
[32]
  TGI: > 246 µM
[33]
  TGI: > 246 µM
[34]
  TGI: > 246 µM
[36]
  TGI: > 246 µM
[37]
  TGI: > 246 µM
[38]
  TGI: > 246 µM
[39]
  TGI: > 246 µM
[58]
  TGI: > 246 µM
[40]
  TGI: > 246 µM
[41]
  TGI: > 246 µM
[43]
  TGI: > 246 µM
[45]
  TGI: > 246 µM
[47]
  TGI: > 246 µM
[48]
  TGI: > 246 µM
[49]
  TGI: > 246 µM
[51]
  TGI: > 246 µM
[52]
  TGI: > 246 µM
